Data on twelve compounds can be found in US20160193216A1 (Nimbus Iris, Inc., priority 2012, published 2016).

pIC50: −log10 of the molar value.

In this assay the target is T1, IRAK4 (Homo sapiens, UniProt Q9NWZ3).
T1 sequence (Q9NWZ3 1-460): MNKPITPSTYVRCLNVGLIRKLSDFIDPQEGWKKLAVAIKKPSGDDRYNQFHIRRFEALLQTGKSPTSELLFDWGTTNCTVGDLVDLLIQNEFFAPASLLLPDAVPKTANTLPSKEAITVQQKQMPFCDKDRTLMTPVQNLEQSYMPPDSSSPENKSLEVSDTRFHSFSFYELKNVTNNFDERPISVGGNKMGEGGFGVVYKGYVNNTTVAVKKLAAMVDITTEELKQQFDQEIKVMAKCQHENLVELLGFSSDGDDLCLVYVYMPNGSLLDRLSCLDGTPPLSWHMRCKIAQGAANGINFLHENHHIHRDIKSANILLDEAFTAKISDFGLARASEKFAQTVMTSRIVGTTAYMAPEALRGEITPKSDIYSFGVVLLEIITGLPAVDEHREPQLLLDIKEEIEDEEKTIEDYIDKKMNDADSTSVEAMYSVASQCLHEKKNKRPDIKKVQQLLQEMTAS
Put plainly: IRAK-4 activity inhibition assay (Caliper). The format is biochemical. The note with it: 37 μM ATP, 3.5 nM IRAK4.
The compound `CCCOC(=O)N1CCc2sc3ncnc(O[C@H]4CC[C@H](N(C)C)CC4)c3c2C1` [Compound I-184, propyl 3-[[4-(dimethylamino)cyclohexyl]oxy]-8-thia-4,6, 12-triazatricyclo[7.4.0.0[2,7]]trideca-1(9),2(7),3,5-tetraene-12-carboxylate] had a pIC50 of over 5.30. To `CN(C)[C@H]1CC[C@H](Oc2ncnc3sc4c(c23)C(C(=O)O)CC4)CC1` (stereo partly drawn) [Compound I-8, 4-(((1r,4r)-4-(dimethylamino)cyclohexyl)oxy)-6,7-dihydro-5H-cyclopenta[4,5]thieno[2,3-d]pyrimidine-5-carboxylic acid] belongs under 4.30; to `C=C[C@@H](O)C[C@H]1CCc2sc3ncnc(O[C@H]4CC[C@@](N)(CC)CC4)c3c21` [Compound I-126, (2S)-1-[(3R)-12-[(4-amino-4-ethylcyclohexyl)oxy]-7-thia-9,11-diazatricyclo[6.4.0.0[2,6]]dodeca-1(8),2(6),9,11-tetraen-3-yl]but-3-en-2-ol], over 5.30; to `CCS(=O)(=O)N1CCc2sc3ncnc(N[C@H]4CC[C@H](N5CCOCC5)CC4)c3c2C1` [Compound I-181, 12-(ethanesulfonyl)-N-[4-(morpholin-4-yl)cyclohexyl]-8-thia-4,6, 12-triazatricyclo[7.4.0.0[2,7]]trideca-1(9),2(7),3,5-tetraen-3-amine], 4.70 to 5.30. Then `CC[C@]1(N(C)C)CC[C@H](Oc2ncnc3sc4c(c23)[C@@H](C[C@@H](C)O)CC4)CC1` [Compound I-102, (2R)-1-[(3R)-12-[[4-(dimethylamino)-4-ethylcyclohexyl]oxy]-7-thia-9,11-diazatricyclo[6.4.0.0[2,6]]dodeca-1(12),2(6),8,10-tetraen-3-yl]propan-2-ol], with over 5.30; and `C[C@@H](O)C[C@H]1CCc2sc3ncnc(O[C@H]4CC[C@H](N(C)C)CC4)c3c21` [Compound I-41, (2R)-1-[(3R)-12-[[4-(dimethylamino)cyclohexyl]oxy]-7-thia-9,11-diazatricyclo[6.4.0.0[2,6]]dodeca-1(8),2(6),9,11-tetraen-3-yl]propan-2-ol], with over 5.30; and `NC(=O)CC[C@H]1CCCc2sc3ncnc(O[C@H]4CC[C@H](N)CC4)c3c21` [Compound I-153, 3-((R)-4-(((1r,4R)-4-aminocyclohexyl)oxy)-5,6,7,8-tetrahydrobenzo[4,5]thieno[2,3-d]pyrimidin-5-yl)propanamide], with over 5.30.

`CCOC(=O)C1CCc2sc3ncnc(N[C@H]4CC[C@H](N)CC4)c3c21` (stereo partly drawn) [Compound I-2, ethyl 4-(((1r,4r)-4-aminocyclohexyl)amino)-6,7-dihydro-5H-cyclopenta[4,5]thieno[2,3-d]pyrimidine-5-carboxylate]: the pIC50 is 4.30 to 4.70.

Compound `CN(C)[C@H]1CC[C@H](Oc2ncnc3sc4c(c23)[C@H](CO)CC4)CC1` [Compound I-20, ((S)-4-(((1r,4S)-4-(dimethylamino)cyclohexyl)oxy)-6,7-dihydro-5H-cyclopenta[4,5]thieno[2,3-d]pyrimidin-5-yl)methanol] had a pIC50 of over 5.30. To `CN(C)[C@H]1CC[C@H](Oc2ncnc3sc4c(c23)CC(CCO)OC4)CC1` (stereo partly drawn) [Compound I-219, 2-(3-[[4-(dimethylamino)cyclohexyl]oxy]-1-oxa-8-thia-4,6-diazatricyclo[7.4.0.0[2,7]]trideca-1(9),2,4,6-tetraen-12-yl)ethan-1-ol] belongs over 5.30; to `CN(C)[C@H]1CC[C@H](Oc2ncnc3sc4c(c23)[C@@H](C[C@H](O)C(N)=O)CC4)CC1` [Compound I-74, (2S)-3-[(3R)-12-[[4-(dimethylamino)cyclohexyl]oxy]-7-thia-9,11-diazatricyclo[6.4.0.0̂[2,6]]dodeca-1(8),2(6),9,11-tetraen-3-yl]-2-hydroxypropanamide], over 5.30; to `CN(C)[C@H]1CC[C@H](Nc2ncnc3sc4c(c23)C(CC(N)=O)CC4)CC1` (stereo partly drawn) [Compound I-13, 2-(4-(((1r,4r)-4-(dimethylamino)cyclohexyl)amino)-6,7-dihydro-5H-cyclopenta[4,5]thieno[2,3-d]pyrimidin-5-yl)acetamide], over 5.30.
